Measured values taken from patent US4785090A, “Cephalosporin derivatives” (Meiji Seika Kaisha, Ltd., priority 1984, dated 1988).
≈ marks a conversion by molar mass, not a printed value. Where a name gives a salt, the structure may show the parent alone. Read-outs that look alike come from different tables or passages of the source.

Columns and labels:
Proteus vulgaris GN 76 = experiment: Minimum Growth Inhibitory Concentration (MIC), Proteus vulgaris GN 76; format: cell-based
Excerpt: (§1) Minimum Growth Inhibitory Concentration (MIC) mcg/ml
10. Proteus vulgaris GN 76
as §1
8. Proteus vulgaris GN 76

Serratia marcescens N 01 = experiment: Minimum Growth Inhibitory Concentration (MIC), Serratia marcescens N 01; format: cell-based; settings: N01; Table 1, bacterium 7: Serratia marcescens N 01
Excerpt: as §1
7. Serratia marcescens N 01

Escherichia coli RGN 823 = experiment: Minimum Growth Inhibitory Concentration (MIC), Escherichia coli RGN 823; format: cell-based; settings: RGN823; Table 1, bacterium 3: Escherichia coli RGN 823
Excerpt: as §1
3. Escherichia coli RGN 823

[1] = test system: Pseudomonas aeruginosa MB 3833; experiment: Minimum Growth Inhibitory Concentration (MIC), Pseudomonas aeruginosa MB 3833; format: cell-based; settings: MB3833; Table 1, bacterium 8: Pseudomonas aeruginosa MB 3833
Excerpt: as §1
8. Pseudomonas aeruginosa MB 3833

[2] = test system: Streptococcus faecalis ATCC 8043; experiment: Minimum Growth Inhibitory Concentration (MIC), Streptococcus faecalis ATCC 8043; format: cell-based; settings: Enterococcus faecalis, ATCC8043; Table 1, bacterium 9: Streptococcus faecalis ATCC 8043
Excerpt: as §1
9. Streptococcus faecalis ATCC 8043

[3] = test system: Klebsiella pneumoniae GN 69; experiment: Minimum Growth Inhibitory Concentration (MIC), Klebsiella pneumoniae GN 69; format: cell-based; settings: GN69; Table 1, bacterium 4: Klebsiella pneumoniae GN 69
Excerpt: as §1
4. Klebsiella pneumoniae GN 69

[4] = test system: Enterobacter cloacae G0005; experiment: Minimum Growth Inhibitory Concentration (MIC), Enterobacter cloacae G0005; format: cell-based; settings: Table 1, bacterium 11: Enterobacter cloacae G0005
Excerpt: as §1
11. Enterobacter cloacae G0005

Bacillus subtilis = experiment: Minimum Growth Inhibitory Concentration (MIC), Bacillus subtilis; format: cell-based; settings: Table 1, bacterium 2: Bacillus subtilis
Excerpt: as §1

[5] = test system: Staphylococcus aureus 209PJC1; experiment: Minimum Growth Inhibitory Concentration (MIC), Staphylococcus aureus 209PJC1; format: cell-based
Excerpt: as §1
1. Staphylococcus aureus 209PJC1
as §1
2. Staphylococcus aureus 209 PJC1

[6] = test system: Klebsiella pneumoniae PCI 602; experiment: Minimum Growth Inhibitory Concentration (MIC), Klebsiella pneumoniae PCI 602; format: cell-based; settings: Klebsiella pneumoniae, PCI602, read-out: Minimum Growth Inhibitory Concentration (MIC)
Excerpt: as §1
5. Klebsiella pneumoniae PCI 602

[7] = test system: Serratia marcescens No. 2; experiment: Minimum Growth Inhibitory Concentration (MIC), Serratia marcescens No. 2; format: cell-based; settings: Serratia marcescens, NO.2, read-out: Minimum Growth Inhibitory Concentration (MIC)
Excerpt: as §1
10. Serratia marcescens No. 2

[8] = test system: Staphylococcus aureus Smith; experiment: Minimum Growth Inhibitory Concentration (MIC), Staphylococcus aureus Smith; format: cell-based; settings: Staphylococcus aureus, read-out: Minimum Growth Inhibitory Concentration (MIC)
Excerpt: as §1
1. Staphylococcus aureus Smith

[9] = test system: Cephalosporinase-producing Escherichia coli GN206; experiment: Treatment of experimental infection in mice (Escherichia coli GN206); format: in vivo; settings: intraperitoneal infection 1.25×10^6 CFU/mouse, subcutaneous one hour after infection, survival at one week
[10] = Toxicity test in mice (intravenous); format: in vivo; settings: for LD50 at 168 h: mouse, in vivo
Excerpt: Further, the compound of Example 28 was intravenously adminstered to 3 mice at a dose of 1 g/kg and also the compounds of Examples 34 and 51 were similarly administered at a dose of 3 g/kg respectively, and the number of survivor was examined after a week.

[11] = test system: Salmonella typhimurium LT2; experiment: Minimum Growth Inhibitory Concentration (MIC), Salmonella typhimurium LT2; format: cell-based; settings: Salmonella enterica, TYPHIMURIUM, read-out: Minimum Growth Inhibitory Concentration (MIC)
Excerpt: as §1
7. Salmonella typhimurium LT2

Proteus mirabilis GN 79 = experiment: Minimum Growth Inhibitory Concentration (MIC), Proteus mirabilis GN 79; format: cell-based; settings: Proteus mirabilis, GN79, read-out: Minimum Growth Inhibitory Concentration (MIC)
Excerpt: as §1
6. Proteus mirabilis GN 79

[12] = test system: Escherichia coli NIHJ JC2; experiment: Minimum Growth Inhibitory Concentration (MIC), Escherichia coli NIHJ JC2; format: cell-based; settings: Escherichia coli, NIHJJC2, read-out: Minimum Growth Inhibitory Concentration (MIC)
Excerpt: as §1
3. Escherichia coli NIHJ JC2

Proteus rettgeri GN624 = experiment: Minimum Growth Inhibitory Concentration (MIC), Proteus rettgeri GN624; format: cell-based; settings: Providencia rettgeri, GN624, read-out: Minimum Growth Inhibitory Concentration (MIC)
Excerpt: as §1
9. Proteus rettgeri GN624

[13] = Serum concentration in mice after subcutaneous administration; format: in vivo; settings: mouse, sc, subcutaneous 25 mg/kg; for concentration at 0.5 h: 1/2 hr; for concentration at 0.25 h: 1/4 hr; for concentration at 5 min: 1/12 hr
Method: The experiment was conducted by using 3 mice (average body weight 20 g) in each group, subcutaneously administering 25 mg/kg of the sample, taking blood samples at predetermined intervals, separating the serum and measuring the sample concentration by an antibacterial activity test using Escherichia coli as a testing bactera.

Eshcerichia coli GN 206 = experiment: Minimum Growth Inhibitory Concentration (MIC), Escherichia coli GN 206; format: cell-based
Excerpt: as §1
4. Eshcerichia coli GN 206

[14] = test system: Enterobacter cloacae G0006; experiment: Minimum Growth Inhibitory Concentration (MIC), Enterobacter cloacae G0006; format: cell-based; settings: Table 1, bacterium 6: Enterobacter cloacae G0006
Excerpt: as §1
6. Enterobacter cloacae G0006

Proteus vulgaris OX19 = experiment: Minimum Growth Inhibitory Concentration (MIC), Proteus vulgaris OX19; format: cell-based; settings: Table 1, bacterium 5: Proteus vulgaris OX19
Excerpt: as §1
5. Proteus vulgaris OX19

[15] = GN76, Table 1, bacterium 10: Proteus vulgaris GN 76, read-out: Minimum Growth Inhibitory Concentration (MIC)
[16] = Table 1, bacterium 1: Staphylococcus aureus 209PJC1, read-out: Minimum Growth Inhibitory Concentration (MIC)

Structure (SMILES) | MIC (Serratia marcescens N 01) | MIC (Escherichia coli RGN 823) | MIC [1] | MIC [3] | MIC (Bacillus subtilis) | MIC [5, 16] | MIC (Proteus vulgaris GN 76; [15]) | MIC [2] | MIC [4] | ED50 [9] | concentration at 0.5 h [13] | concentration at 0.25 h [13] | concentration at 5 min [13] | concentration at 1 h [13] | LD50 at 168 h ([10]; iv) | other results
CCO/N=C(\C(=O)N[C@@H]1C(=O)N2C(C(=O)O)=C(CSc3cc[n+](CC(=O)O)cc3)CS[C@H]12)c1csc(N)n1.[Na+] | – | – | – | – | – | – | – | – | – | 0.065 mg/mouse | 28500 ng/mL | 31000 ng/mL | 26000 ng/mL | 4000 ng/mL | – | MIC [6]: 0.05 µg/mL; MIC (Proteus vulgaris GN 76; Proteus vulgaris, GN76, read-out: Minimum Growth Inhibitory Concentration (MIC)): 0.1 µg/mL; MIC [7]: 0.2 µg/mL; MIC [8]: 0.78 µg/mL; survival after a week ([10]; mice, intravenous, 1 g/kg): all the mice survived; LD50 at 168 h ([10]; mice, intravenous, survivors after a week): ≥ 1000 mg/kg; MIC [11]: 0.1 µg/mL; MIC (Proteus mirabilis GN 79): 0.39 µg/mL; MIC [12]: 0.78 µg/mL; MIC (Proteus rettgeri GN624): 1.56 µg/mL; MIC (Eshcerichia coli GN 206; GN206, read-out: Minimum Growth Inhibitory Concentration (MIC)): 0.39 µg/mL; MIC (Eshcerichia coli GN 206; GN206, read-out: minimum growth inhibitory concentration (MIC)): 0.39 µg/mL; MIC ([5]; Staphylococcus aureus, 209PJC1, read-out: Minimum Growth Inhibitory Concentration (MIC)): 0.39 µg/mL
CO/N=C(\C(=O)N[C@@H]1C(=O)N2C(C(=O)[O-])=C(CSc3cc[n+](CC(=O)O)c4c3CCC4)CS[C@H]12)c1csc(N)n1 [Example 34, (6R,7R)-7-[(Z)-2-(2-Aminothiazol-4-yl)-2-methoxyiminoacetamido]-3-[(2,3-cyclopenteno-1-carboxymethylpyridinium-4-yl)thiomethyl]-ceph-3-em-4-carboxylicacid sodium salt] | 0.05 µg/mL | ≤ 0.025 µg/mL | 6.25 µg/mL | ≤ 0.025 µg/mL | 1.56 µg/mL | 0.78 µg/mL | 0.1 µg/mL | 6.25 µg/mL | 0.2 µg/mL | 0.3 mg/mouse | 21000 ng/mL | 35000 ng/mL | 25000 ng/mL | 6400 ng/mL | ≥ 3000 mg/kg | –
C[n+]1ccc(SCC2=C(C(=O)[O-])N3C(=O)[C@@H](NC(=O)/C(=N\OCC(=O)O)c4csc(N)n4)[C@H]3SC2)c2c1CCC2 [Example 51, (6R,7R)-7-[(Z)-2-(2-Aminothiazol-4-yl)-2-(carboxymethoxyimino)acetamido]-3-[(2,3-cyclopenteno-1-methylpyridinium-4-yl)thiomethyl]-ceph-3-em-4-carboxylic acid sodium salt] | ≤ 0.025 µg/mL | 0.1 µg/mL | 6.25 µg/mL | ≤ 0.025 µg/mL | 0.05 µg/mL | 1.56 µg/mL | ≤ 0.025 µg/mL | 1.56 µg/mL | 0.05 µg/mL | 0.37 mg/mouse | 24000 ng/mL | 34000 ng/mL | 27000 ng/mL | 5400 ng/mL | ≥ 3000 mg/kg | –

Now from value to molecule, other results behind:

MIC (Serratia marcescens N 01) | MIC (Escherichia coli RGN 823) | MIC [1] | MIC [3] | MIC (Bacillus subtilis) | MIC [5, 16] | Structure (SMILES) | MIC (Proteus vulgaris GN 76; [15]) | MIC [2] | MIC [4] | ED50 [9] | concentration at 0.5 h [13] | concentration at 0.25 h [13] | concentration at 5 min [13] | concentration at 1 h [13] | LD50 at 168 h ([10]; iv) | other results
≤ 0.025 µg/mL | ≤ 0.025 µg/mL | 12.5 µg/mL | ≤ 0.025 µg/mL | 1.56 µg/mL | 0.78 µg/mL | CO/N=C(\C(=O)N[C@@H]1C(=O)N2C(C(=O)[O-])=C(CSc3cc[n+](CCS(=O)(=O)O)c4c3CCC4)CS[C@H]12)c1csc(N)n1 [Example 39, (6R,7R)-7-[(Z)-2-(2-Aminothiazol-4-yl)-2-methoxyiminoacetamido]-3-[[2,3-cyclopenteno-1-(2-sulfoethyl)pyridinium-4-yl]thiomethyl]-ceph-3-em-4-carboxylic acid sodium salt] | 0.2 µg/mL | 6.25 µg/mL | 0.1 µg/mL | – | – | – | – | – | – | –
0.1 µg/mL (≈ 0.166 µM) | 0.1 µg/mL (≈ 0.166 µM) | 12.5 µg/mL (≈ 20.7 µM) | 0.05 µg/mL (≈ 0.0828 µM) | 0.2 µg/mL (≈ 0.331 µM) | 0.1 µg/mL (≈ 0.166 µM) | CO/N=C(\C(=O)N[C@@H]1C(=O)N2C(C(=O)[O-])=C(CSc3cc[n+](CC(N)=O)c4c3CCC4)CS[C@H]12)c1csc(N)n1 [Example 35, (6R,7R)-7-[(Z)-2-(2-Aminothiazol-4-yl)-2-methoxyiminoacetamido]-3-[(2,3-cyclopenteno-1-carbamoylmethylpyridinium-4-yl)thiomethyl]-ceph-3-em-4-carboxylate] | 0.39 µg/mL (≈ 0.646 µM) | 0.2 µg/mL (≈ 0.331 µM) | 0.2 µg/mL (≈ 0.331 µM) | – | – | – | – | – | – | –
0.05 µg/mL (≈ 0.0892 µM) | ≤ 0.025 µg/mL | 12.5 µg/mL (≈ 22.3 µM) | ≤ 0.025 µg/mL | 1.56 µg/mL (≈ 2.78 µM) | 0.2 µg/mL (≈ 0.357 µM) | CO/N=C(\C(=O)N[C@@H]1C(=O)N2C(C(=O)[O-])=C(CSc3ccc4c([n+]3C)CCC4)CS[C@H]12)c1csc(N)n1 [Example 1, (6R,7R)-7-[(Z)-2-(2-Aminothiazol-4-yl)-2-methoxyiminoacetamido]-3-[(5,6-cyclopenteno-1-methylpyridinium-2-yl)thiomethyl]-ceph-3-em-4-carboxylate] | – | – | – | – | – | – | – | – | – | MIC [14]: 1.56 µg/mL (≈ 2.78 µM); MIC (Proteus vulgaris OX19): 0.39 µg/mL (≈ 0.696 µM)
